Laboratory results as given in PubChem BioAssay (NCI).
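Step 1: Grow cells in 96-well plates. Step 2: Expose to compound for 48 hours at 5 concentrations. Step 3: Interpolate endpoints linearly; if unreached, use highest concentration. TGI denotes the concentration required for complete inhibition of growth.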

Legend:
Experiment in all cases: NCI-60 cell line screen, 48 h
[1] = tested on: LOX IMVI melanoma
[2] = tested on: KM12 colon
[3] = tested on: DMS 273 small cell lung
[4] = tested on: SK-MEL-5 melanoma
[5] = tested on: HOP-62 NSCLC
[6] = tested on: HCT-15 colon
[7] = tested on: SK-MEL-28 melanoma
[8] = tested on: SNB-19 CNS
[9] = tested on: NCI-H226 lung
[10] = tested on: SF-539 CNS
[11] = tested on: A498 renal
[12] = tested on: MOLT-4 leukemia
[13] = tested on: HCT-116 colon
[14] = tested on: TK-10 renal
[15] = tested on: EKVX NSCLC
[16] = tested on: OVCAR-4 ovarian
[17] = tested on: IGROV1 ovarian
[18] = tested on: CCRF-CEM leukemia
[19] = tested on: COLO 205 colon
[20] = tested on: SF-295 CNS
[21] = tested on: 786-0 renal
[22] = tested on: LXFL 529 NSCLC
[23] = tested on: HT29 colon
[24] = tested on: UACC-62 melanoma
[25] = tested on: SN12C renal
[26] = tested on: OVCAR-3 ovarian
[27] = tested on: RPMI-8226 leukemia
[28] = tested on: SNB-75 CNS
[29] = tested on: UACC-257 melanoma
[30] = tested on: NCI-H522 lung
[31] = tested on: A549 NSCLC
[32] = tested on: CAKI-1 renal
[33] = tested on: DLD-1 colon
[34] = tested on: HCC-2998 colon
[35] = tested on: OVCAR-8 ovarian
[36] = tested on: K-562 leukemia
[37] = tested on: SW-620 colon
[38] = tested on: M14 melanoma
[39] = tested on: UO-31 renal
[40] = tested on: SF-268 CNS
[41] = tested on: KM20L2 colon
[42] = tested on: MALME-3M melanoma
[43] = tested on: OVCAR-5 ovarian
[44] = tested on: SK-MEL-2 melanoma
[45] = tested on: NCI-H23 lung
[46] = tested on: HL-60(TB) leukemia
[47] = tested on: ACHN renal
[48] = tested on: NCI-H460 lung
[49] = tested on: DMS 114 small cell lung
[50] = tested on: SK-OV-3 ovarian

Measured: TGI

CC(C)N(C(=O)C12C3C4C1C1C2C3C41C(=O)O)C(C)C (stereo not given)
> 100 µM: [1] | [2] | [3] | [4] | [5] | [6] | [7] | [8] | [9] | [10] | [11] | [12] | [13] | [14] | [15] | [16] | [17] | [18] | [19] | [20] | [21] | [22] | [23] | [24] | [25] | [26] | [27] | [28] | [29] | [30] | [31] | [32] | [33] | [34] | [35] | [36] | [37] | [38] | [39] | [40] | [41] | [42] | [43] | [44] | [45] | [46] | [47] | [48] | [49] | [50]
